Results reported in patent US5786517A, “Metal-ligand complex catalyzed processes” (Union Carbide Chemicals & Plastics Technology Corporation, priority 1996, dated 1998).

Columns and labels:
[1] = Extraction of base from butyraldehyde into equimolar aqueous H3PO3 (Example 5, Table A); format: physicochemical
Description: The following series of experiments were performed in order to determine the relationship of the pKa of a base to the effectiveness of the base to remain in the organic phase upon contact with an equimolar aqueous acid solution. In all cases the experiments were performed under nitrogen, unless otherwise specified.
Solutions were prepared by dissolving a quantity of acid or base in solvent so that the final concentration was equal to 0.1 moles/liter. The 1×10^-3 moles/liter solutions were prepared by taking an aliquot of the 0.1 moles/liter solution and diluting to the specified concentration. The 1×10^-5 moles/liter solutions were prepared in the same manner as the 1×10^-3 moles/liter solution with the modification of using an aliquot of the 1×10^-3 moles/liter solution in place of the 0.1 moles/liter solution.
In each extraction experiment, 5 milliliters of base solution in butyraldehyde was added to a clean, dry vial. To this vial was added 5 milliliters of equimolar H3 PO3 solution. The resulting mixture was rapidly shaken for several minutes and then allowed to phase separate. A 1 milliliter aliquot of the aqueous layer was then transferred to a clean, dry vial. To this vial was added 1 milliliter of pH 7 sodium/potassium phosphate buffer and 0.1 milliliter of Tergitol® 15-S-9 surfactant. The solution was shaken vigorously, and an aliquot was analyzed by high performance liquid chromatography for base content. The amount of base was then compared with a dichloromethane solution at the initial concentration. The partition coefficients calculated are for partitioning of the base from the organic phase to the water phase and is defined as K=amount of base in the water phase/amount of base in the organic phase.

[2] = Stability of Ligand F in rhodium-containing butyraldehyde solution by HPLC (Examples 2-4)
[3] = Partition of hydroxy butyl phosphonic acid between butyraldehyde and water (Example 1); format: physicochemical
Description: Into a glass vessel was added a stock solution of 536 parts per million of hydroxy butyl phosphonic acid in butyraldehyde. This solution was contacted with water in a weight ratio of 1.18:1 grams water to grams aldehyde/acid stock solution. The aldehyde and water phase were contacted thoroughly to allow the separation of acid between the organic and the aqueous layer to reach equilibrium. The aldehyde phase was analyzed for hydroxy butyl phosphonic acid by ion chromatography after contact with the water giving 52.3 parts per million of hydroxy butyl phosphonic acid. The water phase was also analyzed by ion chromatography for the acid. The water phase contained 414 parts per million of hydroxy butyl phosphonic acid. The partition coefficient between the water and the butyraldehyde phase was 414/52.3 or 7.92.

[4] = base 1 × 10^-3 moles/liter in butyraldehyde, H3PO3 1 × 10^-3 moles/liter
[5] = base 1 × 10^-5 moles/liter in butyraldehyde, H3PO3 1 × 10^-5 moles/liter
[6] = 536 ppm stock in butyraldehyde, 1.18:1 grams water to grams aldehyde/acid stock, ion chromatography

| Compound | K (amount of base in the water phase/amount of base in the organic phase) [1, 4] | K (amount of base in the water phase/amount of base in the organic phase) [1, 5] | also measured |
| --- | --- | --- | --- |
| O=C1CCCN1Cc1ccccc1 [1-benzyl-2-pyrrolidinone] | 0.02 | 0.00 |  |
| CC(C)(C)c1cc(-c2cc(C(C)(C)C)cc(C(C)(C)C)c2Op2oc3ccccc3c3ccccc3o2)c(Op2oc3ccccc3c3ccccc3o2)c(C(C)(C)C)c1 [Ligand F] |  |  | concentration of Ligand F after 24 hours ([2]; 0.017 grams H3PO3 added to 12 gram solution, decreased from 0.39, 24 hours): 0.12 percent by weight; concentration of Ligand F after 72 hours ([2]; 0.017 grams H3PO3 added to 12 gram solution, initially 0.39, 72 hours): 0.04 percent by weight; change in concentration of Ligand F ([2]; after either 24 or 72 hours, 200 ppm rhodium, 0.39 wt% Ligand F in butyraldehyde, no added acid or benzimidazole): No change in the concentration |
| c1ccc2[nH]nnc2c1 [benzotriazole] | 0.08 | 0.00 |  |
| c1ccc2ncccc2c1 [quinoline] | 0.43 | 1.20 |  |
| hydroxy butyl phosphonic acid |  |  | hydroxy butyl phosphonic acid in aldehyde phase after contact with water [3, 6]: 52.3 parts per million; hydroxy butyl phosphonic acid in water phase [3, 6]: 414 parts per million; partition coefficient between the water and the butyraldehyde phase ([3]; water/butyraldehyde, 414/52.3): 7.92 |
